Data on two compounds can be found in the NIST ThermoML archive (doi:10.1021/je901020a).

Usually refractive index stands for the speed of light in vacuum divided by its phase velocity in the sample. In general, mass density refers to mass per unit of volume. For orientation: speed of sound means the propagation velocity of pressure waves in the medium.

Several values for one entry are separate records, joined by “and”; a condition that tells them apart may be missing. Identical values can stand only once. ± gives the expanded uncertainty stated by the source.

The nature of data set [1]: refractive index (Na D-line) (dimensionless). To be noted: 101.33 kPa, Liquid, Standard Abbe refractometry.
For data set [2] the following is noted: 101 kPa, Liquid; for speed of sound: Pulse-echo method.

`C1CCCCC1` [cyclohexane]: the results for the refractive index in data set [1] (298.15 K) and in data set [1] (313.15 K) were 1.4236 ± 0.00064 and 1.41516 ± 0.00064, respectively. Besides, the mass density in data set [2] (298.15 K) was 773.9 ± 0.5 kg/m3; in data set [2] (313.15 K) it was 759.6 ± 0.5 kg/m3 and 759.59 ± 0.5 kg/m3. In addition, the speed of sound amounted to 1255 ± 2 m/s in data set [2] (298.15 K) and 1182 ± 2 m/s in data set [2] (313.15 K).
Turning to `Cc1ccccc1C` [1,2-dimethylbenzene], the values for the refractive index in data set [1] (298.15 K) and in data set [1] (313.15 K) were 1.50262 ± 0.001 and 1.49466 ± 0.001, respectively. The results for the mass density in data set [2] (298.15 K) and in data set [2] (313.15 K) were 875.4 ± 0.5 kg/m3 and 862.9 ± 0.5 kg/m3, respectively. The speed of sound was 1350 ± 2 m/s in data set [2] (298.15 K); 1290 ± 2 m/s and 1289 ± 2 m/s in data set [2] (313.15 K).
